Entries after “also recorded” stand apart in the source; their conditions may differ. Like-named read-outs stand apart in the source and are kept apart here.

Results on two molecules are retold here after patent publication US20220133747A1, “ESTROGEN RECEPTOR INHIBITORS AND USES THEROF” (The Regents of the University of California, priority 2018, published 2022).

In one experiment the test system is 4T1 tumors. As to the kind of experiment: 4T1 tumor progression in syngeneic BALB/c mice. The following applies: SERD128 50 mg/kg oral gavage, fulvestrant 5 mg/mouse subcutaneous once a week, anti-PD-L1 100 μg every third day, 10-12 days. In kind it is in vivo. The method, then:
Ovariec-tomized 6-wk-old female BALC/c mice supplemented with E2 pellets (0.36 mg/60 day release pellet) were implanted SC with 2.5×10^5 4T1 cells. After tumors reached approx. 200 mm3, mice were randomized and treated with control vehicle (CON), 100 μg of anti-PD-L1 (antibody clone 10F.9G2, BioXCell) Q3 days (PD-L1), 50 mg/kg SERD128 by oral gavage (SERD128) or combined antibody+SERD (PD-L1+SERD128). Tumors were measured Q3 days, with tumor volume calculated as V=(W(2)×L)/2), with mean+SE (*P<0.05, **P<0.01 vs CON).
FIGS. 23A-23C show estrogen effects on ERα negative tumor growth in vitro and in vivo. […] Female 6-wk-old BALB/c mice, either ovariectomized (ovx) or sham-operated (intact), were inoculated s.c. with 2×10^5 4T1 TNBC cells. Tumor growth was then assessed every 3 days, with tumor volume calculated as V=(l×w×w)/2. ****P≤0.0001. […] 4T1 cells were grown in the presence (+E2) or absence (−E2) of estradiol-17β and increasing concentrations of SERD128 at 10 nM (128-10), 100 nM (128-100) or 1000 nM (128-1000). Cell proliferation was assessed using the Incucyte S3 Live-Cell Analysis system with pictures obtained every 4-6 hours. […] Ovariectomized 6-week-old female syngeneic BALB/c mice were primed with estradiol-17β slow-release pellets prior to tumor cell inoculation. After three days, 4T1 cells were injected in the 4th mammary fat pad (2×10^5 cells). After tumors reached ˜200 mm^3 mice were randomized and treated with control vehicle (CON), […] of anti-PD-L1 antibody every 3rd day (PD-L1 Ab), 50 mg/kg SERD128 via oral gavage (SERD128), and combinations of antibody and SERD128 (SERD128+PD-L1 Ab). Tumors were measured every 3 days, and tumor volume was calculated as V=(W(2)×L)/2). **P<0,01, ****P<0.0001 as compared to control group. n=11-12.
In further studies to determine the effects of antiestrogen treatment alone or in combination with anti-PD-L1 antibody on murine tumor progression in vivo, ovariectomized 6-week-old female syngeneic BALB/c mice were used (Jackson Laboratory). […] Tumors were measured every 3-4 days, and tumor volume was calculated as above. […]

Experiment [1] relates to immune cell subsets in 4T1 tumors. The experiment in a line: Mass cytometry (CyTOF) of immune cell subsets in 4T1 tumors. Format: in vivo, BALB/c mice. The method, then:
Single cell suspensions were prepared from 4T1 tumors grown in BALC/c mice treated for 12 days with control (CON), 100 μg of anti-PD-L1 antibody Q3 days (PD-L1), 50 mg/kg SERD128 via oral gavage (SERD128) or combined (PD-L1+SERD128). Cells were labeled with specific antibodies and analyzed by mass cytometry (cyTOF).
Cells were labeled with specific antibodies and analyzed by mass cytometry (CyTOF).
Tumors from each mouse were harvested after 10-12 days of treatment as described above. Single cell suspensions were generated from tumors using the MACS mouse tumor dissociation kit (Miltenyi Biotech Cat. 130-096-730) following manufacturer's instructions. One million cells per tumor were resuspended in PBS and labeled with Cell-ID Cisplatin (Fluidigm, Cat. 201064) to assess for live/dead cells. For antibody labeling, we used the recommended cell surface staining procedure (Fluidigm) followed by the FoxP3/Transcription Staining Buffer Set protocol (eBiosciences™). Cells were labeled with a panel of 28 metal-conjugated antibodies to determine different immune lineages in addition to memory, trafficking, activation, and exhaustion markers (see Tables 2-3 for list of antibodies). After washing and centrifugation, cells were fixed using MaxPar Fix and Perm buffer (Fluidigm, Cat. 201067) and labelled for single cell discrimination with Cell-ID Intercalator-Ir (Fluidigm, Cat. 201192A). Samples were resuspended with 10% EQ four-element calibration beads (Fluidigm, Cat. 201078), and filtered through a 40 μm mesh filter prior to acquisition on a HELIOS' mass cytometer (Fluidigm), at a rate of 300-500 events/s.
Collected mass cytometry data was analyzed as previously described. Briefly, samples were normalized utilizing a bead standard. First, each cytometry file was processed in FLOWJO (v10.3), then manually gated for stability of signal over time, followed by exclusion of normalization beads, ratio of DNA intercalators (191Ir+vs 193Ir+), with finally single cell events (Ir193 vs event length) (FIG. 24A). After that, viable (195Pt−)CD45+ events were exported and uploaded into the X-shift (VorteX) clustering environment to obtain the k-nearest-neighbor density estimation as described before. Dimensionality reduction of unclustered data was performed using the t-stochastic neighborhood embedding (t-SNE) and PhenoGraph algorithms implemented in the Cytofkit library, supplied by BIOCONDUCTOR v.3.4 and run in RSTUDIO v.1.1.463. A fixed number of 10,000 cells were sampled without replacement from each file and combined for analysis. Resulting t-SNE plots were subsequently filtered by marker expression to visualize differences between different treatment groups. Heatmaps were generated using Z-scores based on median marker expression (excel and Prism v7).

With `C[C@]12CC[C@@H]3c4ccc(O)cc4C[C@@H](CCCCCCCCC[S+]([O-])CCCC(F)(F)C(F)(F)F)[C@H]3[C@@H]1CC[C@@H]2O` (some centres unmarked) [fulvestrant, reference compound], the “4T1 tumor progression (tumor volume)” value in the experiment with 4T1 tumors is “effective in inhibition of 4T1 tumor growth in vivo”. In addition, the “total dendritic cells (CD11c+MHCII+)” value in experiment [1] was “increased the population of DCs in 4T1 tumors”.

For `C[C@]12C[C@H](Oc3ccc(N)c(C(F)(F)F)c3)[C@@H]3c4ccc(O)cc4CC[C@H]3[C@@H]1CC[C@@H]2O` [SERD128, (8S,9S,11S,13S,14S,17S)-11-(4-Amino-3-(trifluoromethyl)phenoxy)-13-methyl-7,8,9,11,12,13,14,15,16,17-decahydro-6H-cyclopenta[a]phenanthrene-3,17-diol], the “4T1 tumor progression (tumor volume)” value in the experiment on 4T1 tumors (50 mg/kg) is “inhibits breast cancer growth in vivo; also recorded: effective in inhibition of 4T1 tumor growth in vivo; also recorded: significant suppression of 4T1 tumor progression in vivo”. Besides, in the experiment on 4T1 tumors (listed as S128), the “4T1 tumor progression (tumor volume)” value was “elicits inhibition of 4T1 TNBC progression in vivo”. Further, in experiment [1], the “B regulatory cells (CD19+ CD25+ CD69+, gated on CD19+)” value is “decreases expression of B regulatory cells; also recorded: decrease expression of this subpopulation”; the “M1 macrophages (MHCII high)” value is recorded as “increase in the M1 tumoricidal population of macrophages; also recorded: increases the ER+M1-tumoricidal subset of macrophages”; the “M2 macrophages (MHCII low)” value is “notable decrease in the M2 phenotype; also recorded: reduces the M2-phenotype”; the “markers of CD8+ TIL activation and/or proliferation” value is “promotes enhanced proliferation and activation of CD8^+ T-cells”. In addition, in experiment [1], the “stimulatory/myeloid dendritic cells (mDCs)” value was “increase expression of total dendritic cells (DC) and their stimulatory/myeloid subgroup; also recorded: increased population of mDCs”; the “total dendritic cells (CD11c+MHCII+)” value is on record as “increase expression of total dendritic cells; also recorded: increased population of mDCs in 4T1 tumors as well as the total population of DCs”. In addition, the “markers of CD8+ TIL activation and/or proliferation” value in experiment [1] (listed as S128) is reported as “increased”.
